Test results published in patent US7994321B2, “Substituted thieno[3,2-C]pyridine-7-carboxylic acid derivatives” (Hoffmann-La Roche Inc., priority 2006, dated 2011).

These molecules were tested against T1, Human recombinant EE-tagged PDGFRβ (Homo sapiens, UniProt P09619) (assay: PDGFRβ IMAP Kinase Assay (fluorescence polarization)). Details: Kinase Enzyme Inhibition Assay; IMAP FP; FITC-labeled peptide substrate, ATP; 60 minutes at room temperature.
T1 construct: made in house; host or cells: Sf9 cells
T1 sequence (P09619 33-1106): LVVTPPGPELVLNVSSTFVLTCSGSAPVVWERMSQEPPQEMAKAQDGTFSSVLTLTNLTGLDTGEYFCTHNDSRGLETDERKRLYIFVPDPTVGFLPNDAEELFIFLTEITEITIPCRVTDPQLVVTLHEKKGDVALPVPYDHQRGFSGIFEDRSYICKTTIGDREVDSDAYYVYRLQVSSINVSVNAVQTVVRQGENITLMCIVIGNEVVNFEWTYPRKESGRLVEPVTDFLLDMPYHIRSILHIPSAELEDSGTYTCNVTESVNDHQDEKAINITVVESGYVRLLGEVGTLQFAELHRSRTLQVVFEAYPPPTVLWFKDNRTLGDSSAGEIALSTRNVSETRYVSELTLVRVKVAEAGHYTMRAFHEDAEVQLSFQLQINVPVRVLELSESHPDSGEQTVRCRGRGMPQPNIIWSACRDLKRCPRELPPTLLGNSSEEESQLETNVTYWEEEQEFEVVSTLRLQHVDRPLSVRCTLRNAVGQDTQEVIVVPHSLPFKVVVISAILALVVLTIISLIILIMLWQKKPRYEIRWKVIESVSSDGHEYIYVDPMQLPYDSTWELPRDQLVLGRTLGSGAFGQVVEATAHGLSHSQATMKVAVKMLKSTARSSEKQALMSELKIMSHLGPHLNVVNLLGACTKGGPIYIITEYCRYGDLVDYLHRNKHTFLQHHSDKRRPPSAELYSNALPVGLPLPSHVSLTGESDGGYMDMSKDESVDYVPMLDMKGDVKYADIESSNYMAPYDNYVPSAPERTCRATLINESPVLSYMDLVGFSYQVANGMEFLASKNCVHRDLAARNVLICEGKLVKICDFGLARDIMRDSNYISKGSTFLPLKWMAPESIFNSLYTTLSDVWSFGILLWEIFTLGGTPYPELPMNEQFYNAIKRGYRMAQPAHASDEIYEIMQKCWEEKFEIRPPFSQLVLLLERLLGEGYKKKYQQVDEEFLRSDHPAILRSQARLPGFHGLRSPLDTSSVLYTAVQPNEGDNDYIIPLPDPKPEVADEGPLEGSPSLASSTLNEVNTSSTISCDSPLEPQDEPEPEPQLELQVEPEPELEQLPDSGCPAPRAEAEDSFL
Format: biochemical
From the text: The assay uses IMAP Fluorescence polarization (FP) assay platform based on the high affinity binding of phosphate by immobilized metal coordination complexes. The substrate used in this assay is a Fitc labeled peptide: FITC-ALTSNQEYLDLSMPL. Upon substrate peptide's phosphorylation, the IMAP binding reagent complexes with phosphate groups on phosphopeptides generated in the PDGFRβ reaction, which causes a change in the rate of the molecular motion of the peptide, and results in an increase in the FP values.
• Enzyme: Human recombinant EE-tagged PDGFRβ, expressed in Sf9 cells (stock concentration 74.5 μM, from Protein Biochemistry, RDT); store at −80° C. • Substrate: Synthesized Fitc labeled peptide: FITC-ALTSNQEYLDLSMPL; store at −20° C. • Positive Control Staurosporine (1 mM stock in DMSO, Calbiochem) • Robotic System Workstation: Tomtec Quadra • Reader: Acquest 384.1356 (Molecular Devices); FP reading method • Assay Plate: BD Falcon 30-μL 384 assay plate (Cat # 353972), and Costar 384 black plate (Cat # 3710) Assay Procedures: (1) Prepare Assay Buffer-MOPS Buffer: 20 mM MOPS (Teknova) pH 7.1, 5 mM sodium acetate, 6.25 mM MgCl2, 0.5 mM EDTA, 1 mM DTT, 0.04 mM NaVO4, 0.02% BSA. (2) Prepare Substrate Mix containing peptide (1 μM) and ATP (48.6 μM) in assay buffer. Add 8 μL of Substrate Mix in BD Falcon assay plates. (3) Prepare PDGFRβ (0.2 μM) in assay buffer. (4) Dilute compounds and positive control in DMSO (40 fold, 4-pt in series). Add 18 μL/well of assay buffer into 384 polypropylene compound plates containing 2 μL of compound solution in each well, mix and transfer 4 μl/well of diluted solution into the BD Falcon assay plates containing 8 μL of Substrate Mix (step 2) in each well. Then add 4 μl/well of PDGFRβ solution (step 3) in all wells except blank wells. Add 4 μl/well of assay buffer into blank wells. (5) Incubate at room temperature for 60 minutes. (6) Prepare 1:400 IMAP bead mix following the instruction given in the IMAP Bead Binding System Kit (Molecular Devices), and add 30 μl/well of IMAP bead mix in Costar 384 black plates. (7) Transfer 2 μl/well of reaction solution (step 4-5) into Costar 384 black plates containing 30 μl/well of bead mix (step 6). (8) Incubate at RT for 2 hours. (9) Read FP values at 485 nm and 530 nm on Acquest.
Kinase Enzyme Inhibition Assay (IC50)

Compound	IC50 [nM]
CCOC(=O)c1cncc2c(COc3cccc(NC(=O)c4ccc(F)cc4)c3)csc12 [Example 8, 3-[3-(4-Fluoro-benzoylamino)-phenoxymethyl]-thieno[3,2-c]pyridine-7-carboxylic acid ethyl ester]	340
CCOC(=O)c1cncc2c(COc3cccc(NC(=O)c4cccc(OC)c4)c3)csc12 [Example 13, 3-[3-(3-Methoxy-benzoylamino)-phenoxymethyl]-thieno[3,2-c]pyridine-7-carboxylic acid ethyl ester]	440
O=C(Nc1cccc(OCc2csc3c(C(=O)NCCO)cncc23)c1)c1cccc(Cl)c1 [Example 16, 3-[3-(3-Chloro-benzoylamino)-phenoxymethyl]-thieno[3,2-c]pyridine-7-carboxylic acid (2-hydroxy-ethyl)-amide]	113
O=C(Nc1cccc(OCc2csc3c(C(=O)NCCO)cncc23)c1)c1ccccc1 [Example 7, 3-(3-Benzoylamino-phenoxymethyl)-thieno[3,2-c]pyridine-7-carboxylic acid (2-hydroxy-ethyl)-amide]	990
COc1cccc(C(=O)Nc2ccc(C)c(OCc3csc4c(C(=O)NCCO)cncc34)c2)c1 [Example 31, 3-[5-(3-Methoxy-benzoylamino)-2-methyl-phenoxymethyl]-thieno[3,2-c]pyridine-7-carboxylic acid (2-hydroxy-ethyl)-amide]	< 20000
